The values below come from patent US7820623B2 (priority 2006, dated 2010).

Where two headings read alike, the source gives them in different places. Bridge positions count the residues as written; N and C are the ends. Square brackets hold non-standard residues; d marks the D form. Peptide text beside a SMILES is read from it. 1Nal = N[C@@H](Cc1cccc2ccccc12)C(=O)O

Assay [1] concerns thapsigargin-induced IFN-g production in human whole blood. It is filed as cell-based.
Assay [2] deals with thapsigargin-induced IL-2 production in human whole blood.
[3] abbreviates: read-out: Analogue Activity (IC50) WB/IFNg.
Where [4] appears, read: read-out: Analogue Activity (IC50) WB/IL-2.

Turning to `CC[C@H](C)[C@@H]1NC(=O)[C@H](CCCCN)NC(=O)[C@@H](NC(=O)[C@H](CCCCN)NC(=O)[C@@H](NC(=O)[C@H](CC(N)=O)NC(=O)[C@@H](NC(=O)[C@@H](NC(=O)[C@@H](NC(=O)CN)C(C)C)[C@@H](C)CC)[C@@H](C)CC)C(C)C)CSSC[C@@H]2NC(=O)[C@H](CCCCN)NC(=O)CNC(=O)[C@H](Cc3ccccc3)NC(=O)[C@H](CCCNC(=N)N)NC(=O)[C@H](CCSC)NC(=O)CNC(=O)[C@H](C)NC(=O)[C@H](CCCCN)NC(=O)[C@H](CCCCN)NC(=O)[C@@H]3CSSC[C@@H](C(=O)N[C@H](C(=O)N4CCC[C@H]4C(=O)N[C@@H](CCCCN)C(=O)O)[C@@H](C)O)NC(=O)[C@H](Cc4c[nH]cn4)NC(=O)[C@H](CSSC[C@H](NC(=O)[C@H](CCC(N)=O)NC(=O)[C@H](CCCNC(=N)N)NC(=O)[C@H](CO)NC1=O)C(=O)N[C@@H](CC(C)C)C(=O)N[C@@H](CCC(=O)O)C(=O)N1CCC[C@H]1C(=O)N3)NC(=O)[C@H](CCCCN)NC(=O)[C@H](CCCNC(=N)N)NC(=O)[C@H](CC(N)=O)NC(=O)[C@H](CCSC)NC2=O` [G31R], the values for the IC50 in assay [1] (setting [3]) and in assay [2] (setting [4]) were 343 pM and 314 pM, respectively.
As for `CC[C@H](C)[C@@H]1NC(=O)[C@H](CCCCN)NC(=O)[C@@H](NC(=O)[C@H](CCCCN)NC(=O)[C@@H](NC(=O)[C@H](CCC(=O)O)NC(=O)[C@@H](NC(=O)[C@@H](NC(=O)[C@@H](NC(=O)CN)C(C)C)[C@@H](C)CC)[C@@H](C)CC)C(C)C)CSSC[C@@H]2NC(=O)[C@H](CCCCN)NC(=O)CNC(=O)[C@H](Cc3ccccc3)NC(=O)[C@H](CCCNC(=N)N)NC(=O)[C@H](CCSC)NC(=O)CNC(=O)[C@H](C)NC(=O)[C@H](CCCCN)NC(=O)[C@H](CCCCN)NC(=O)[C@@H]3CSSC[C@@H](C(=O)N[C@H](C(=O)N4CCC[C@H]4C(=O)N[C@@H](CCCCN)C(=O)O)[C@@H](C)O)NC(=O)[C@H](Cc4c[nH]cn4)NC(=O)[C@H](CSSC[C@H](NC(=O)[C@H](CCC(N)=O)NC(=O)[C@H](CCCNC(=N)N)NC(=O)[C@H](CO)NC1=O)C(=O)N[C@@H](CC(C)C)C(=O)N[C@@H](CCC(=O)O)C(=O)N1CCC[C@H]1C(=O)N3)NC(=O)[C@H](CCCCN)NC(=O)CNC(=O)[C@H](CC(N)=O)NC(=O)[C@H](CCSC)NC2=O` [N5E] (H-GVIIEVKCKISRQCLEPCKKAGMRFGKCMNGKCHCTPK-OH; disulfide 8-28, 14-33, 18-35), the results for the IC50 in assay [1] (setting [3]) and in assay [2] (setting [4]) were 65 pM and 100 pM, respectively.
For `CC[C@H](C)[C@@H]1NC(=O)[C@H](CCCCN)NC(=O)[C@@H](NC(=O)[C@H](CCCCN)NC(=O)[C@@H](NC(=O)[C@H](CC(N)=O)NC(=O)[C@@H](NC(=O)[C@@H](NC(=O)[C@@H](NC(=O)CN)C(C)C)[C@@H](C)CC)[C@@H](C)CC)C(C)C)CSSC[C@@H]2NC(=O)[C@H](CCCCN)NC(=O)CNC(=O)[C@H](Cc3ccccc3)NC(=O)[C@H](CCCNC(=N)N)NC(=O)[C@H](CCSC)NC(=O)CNC(=O)[C@H](C)NC(=O)[C@H](CCCCN)NC(=O)[C@H](Cc3cccc4ccccc34)NC(=O)[C@@H]3CSSC[C@@H](C(=O)N[C@H](C(=O)N4CCC[C@H]4C(=O)N[C@@H](CCCCN)C(=O)O)[C@@H](C)O)NC(=O)[C@H](Cc4c[nH]cn4)NC(=O)[C@H](CSSC[C@H](NC(=O)[C@H](CCC(N)=O)NC(=O)[C@H](CCCNC(=N)N)NC(=O)[C@H](CO)NC1=O)C(=O)N[C@@H](CC(C)C)C(=O)N[C@@H](CCC(=O)O)C(=O)N1CCC[C@H]1C(=O)N3)NC(=O)[C@H](CCCCN)NC(=O)CNC(=O)[C@H](CC(N)=O)NC(=O)[C@H](CCSC)NC2=O` [K19Nal] (H-GVIINVKCKISRQCLEPC[1Nal]KAGMRFGKCMNGKCHCTPK-OH; disulfide 8-28, 14-33, 18-35), the IC50 was 99 pM in assay [1] (setting [3]) and 58 pM in assay [2] (setting [4]).
With “GVIINVKCKISRQCLEPCAKAGMRFGKCMNGKCHCTPK [Ala-19 (SEQ ID No: 1415)]”, the IC50 in assay [1] (read-out: Average IC50 IFNg) and in assay [2] (read-out: Average IC50 IL-2) was 162 pM in each case.
Turning to `CC[C@H](C)[C@H](NC(=O)[C@H](C)NC(=O)[C@@H](NC(=O)CN)C(C)C)C(=O)N[C@@H](CC(N)=O)C(=O)N[C@H](C(=O)N[C@@H](CCCCN)C(=O)N[C@H]1CSSC[C@@H]2NC(=O)[C@H](CCCCN)NC(=O)CNC(=O)[C@H](Cc3ccccc3)NC(=O)[C@H](CCCNC(=N)N)NC(=O)[C@H](CCSC)NC(=O)CNC(=O)[C@H](C)NC(=O)[C@H](CCCCN)NC(=O)[C@H](CCCCN)NC(=O)[C@@H]3CSSC[C@@H](C(=O)N[C@H](C(=O)N4CCC[C@H]4C(=O)N[C@@H](CCCCN)C(=O)O)[C@@H](C)O)NC(=O)[C@H](Cc4c[nH]cn4)NC(=O)[C@H](CSSC[C@H](NC(=O)[C@H](CCC(N)=O)NC(=O)[C@H](CCCNC(=N)N)NC(=O)[C@H](CO)NC(=O)[C@H]([C@@H](C)CC)NC(=O)[C@H](CCCCN)NC1=O)C(=O)N[C@@H](CC(C)C)C(=O)N[C@@H](CCC(=O)O)C(=O)N1CCC[C@H]1C(=O)N3)NC(=O)[C@H](CCCCN)NC(=O)CNC(=O)[C@H](CC(N)=O)NC(=O)[C@H](CCSC)NC2=O)C(C)C` [I3A] (H-GVAINVKCKISRQCLEPCKKAGMRFGKCMNGKCHCTPK-OH; disulfide 8-28, 14-33, 18-35), the IC50 is 99.2 pM in assay [1] (setting [3]) and 88.3 pM in assay [2] (setting [4]).
With `CC[C@H](C)[C@@H]1NC(=O)[C@H](C)NC(=O)[C@@H](NC(=O)[C@H](CCCCN)NC(=O)[C@@H](NC(=O)[C@H](CC(N)=O)NC(=O)[C@@H](NC(=O)[C@@H](NC(=O)[C@@H](NC(=O)CN)C(C)C)[C@@H](C)CC)[C@@H](C)CC)C(C)C)CSSC[C@@H]2NC(=O)[C@H](CCCCN)NC(=O)CNC(=O)[C@H](Cc3ccccc3)NC(=O)[C@H](CCCNC(=N)N)NC(=O)[C@H](CCSC)NC(=O)CNC(=O)[C@H](C)NC(=O)[C@H](CCCCN)NC(=O)[C@H](CCCCN)NC(=O)[C@@H]3CSSC[C@@H](C(=O)N[C@H](C(=O)N4CCC[C@H]4C(=O)N[C@@H](CCCCN)C(=O)O)[C@@H](C)O)NC(=O)[C@H](Cc4c[nH]cn4)NC(=O)[C@H](CSSC[C@H](NC(=O)[C@H](CCC(N)=O)NC(=O)[C@H](CCCNC(=N)N)NC(=O)[C@H](CO)NC1=O)C(=O)N[C@@H](CC(C)C)C(=O)N[C@@H](CCC(=O)O)C(=O)N1CCC[C@H]1C(=O)N3)NC(=O)[C@H](CCCCN)NC(=O)CNC(=O)[C@H](CC(N)=O)NC(=O)[C@H](CCSC)NC2=O` [K9A] (H-GVIINVKCAISRQCLEPCKKAGMRFGKCMNGKCHCTPK-OH; disulfide 8-28, 14-33, 18-35), the IC50 in assay [1] (setting [3]) came to 71.1 pM; in assay [2] (setting [4]), 79.6 pM.
Consider `CC[C@H](C)[C@H](NC(=O)[C@H](C)NC(=O)CN)C(=O)N[C@H](C(=O)N[C@@H](CC(N)=O)C(=O)N[C@H](C(=O)N[C@@H](CCCCN)C(=O)N[C@H]1CSSC[C@@H]2NC(=O)[C@H](CCCCN)NC(=O)CNC(=O)[C@H](Cc3ccccc3)NC(=O)[C@H](CCCNC(=N)N)NC(=O)[C@H](CCSC)NC(=O)CNC(=O)[C@H](C)NC(=O)[C@H](CCCCN)NC(=O)[C@H](CCCCN)NC(=O)[C@@H]3CSSC[C@@H](C(=O)N[C@H](C(=O)N4CCC[C@H]4C(=O)N[C@@H](CCCCN)C(=O)O)[C@@H](C)O)NC(=O)[C@H](Cc4c[nH]cn4)NC(=O)[C@H](CSSC[C@H](NC(=O)[C@H](CCC(N)=O)NC(=O)[C@H](CCCNC(=N)N)NC(=O)[C@H](CO)NC(=O)[C@H]([C@@H](C)CC)NC(=O)[C@H](CCCCN)NC1=O)C(=O)N[C@@H](CC(C)C)C(=O)N[C@@H](CCC(=O)O)C(=O)N1CCC[C@H]1C(=O)N3)NC(=O)[C@H](CCCCN)NC(=O)CNC(=O)[C@H](CC(N)=O)NC(=O)[C@H](CCSC)NC2=O)C(C)C)[C@@H](C)CC` [V2A] (H-GAIINVKCKISRQCLEPCKKAGMRFGKCMNGKCHCTPK-OH; disulfide 8-28, 14-33, 18-35), for which the IC50 worked out at 104 pM in assay [1] (setting [3]) and 88.4 pM in assay [2] (setting [4]).
“des1, V2G, R12A, E16K, K19R, K20D, H34A (GIINVKCKISAQCLKPCRDAGMRFGKCMNGKCACTPK)”: the IC50 in assay [1] (read-out: WB/IFNg (IC50)) is 2240 pM; in assay [2] (read-out: WB/IL-2 (IC50)), 1500 pM.
Regarding “GVIINVKCKISRQCLEACKKAGMRFGKCMNGKCHCTPK [Ala-17 (SEQ ID No: 1414)]”, the IC50 in assay [1] (read-out: Average IC50 IFNg) and in assay [2] (read-out: Average IC50 IL-2) was 173 pM throughout.
`CC[C@H](C)[C@H](NC(=O)[C@@H](NC(=O)CN)C(C)C)C(=O)N[C@H](C(=O)N[C@@H](CC(N)=O)C(=O)N[C@H](C(=O)N[C@@H](CCCCN)C(=O)N[C@H]1CSSC[C@@H]2NC(=O)[C@H](CCCCN)NC(=O)CNC(=O)[C@H](Cc3ccccc3)NC(=O)[C@H](CCCNC(=N)N)NC(=O)[C@H](CCSC)NC(=O)CNC(=O)[C@H](C)NC(=O)[C@H](CCCCN)NC(=O)[C@H](CCCCN)NC(=O)[C@@H]3CSSC[C@@H](C(=O)N[C@H](C(=O)N4CCC[C@H]4C(=O)N[C@@H](CCCCN)C(=O)O)[C@@H](C)O)NC(=O)[C@H](Cc4c[nH]cn4)NC(=O)[C@H](CSSC[C@H](NC(=O)[C@H](CCC(N)=O)NC(=O)[C@H](CCCNC(=N)N)NC(=O)[C@H](CO)NC(=O)[C@H](CCCNC(=N)N)NC(=O)[C@H](CCCCN)NC1=O)C(=O)N[C@@H](CC(C)C)C(=O)N[C@@H](CCC(=O)O)C(=O)N1CCC[C@H]1C(=O)N3)NC(=O)[C@H](CCCCN)NC(=O)CNC(=O)[C@H](CC(N)=O)NC(=O)[C@H](CCSC)NC2=O)C(C)C)[C@@H](C)CC` [I10R] (H-GVIINVKCKRSRQCLEPCKKAGMRFGKCMNGKCHCTPK-OH; disulfide 8-28, 14-33, 18-35): the IC50 in assay [1] (setting [3]) worked out at 474 pM; in assay [2] (setting [4]) it was 307 pM.
